Reference: PMC9586930, “Molecular insights into the distinct signaling duration for the peptide-induced PTH1R activation” (Nature Communications, 2022)
Residue numbers refer to the chain shown, from its start.

Tests used:
Format in all cases: cell-based
Details in all cases: for ΔpEC50±SEM: relative to WT, n = 3 in triplicate; for ΔpEC50±SEM / Span±SEM: mean ± SEM; for Span±SEM: window between maximal response (Emax) and vehicle, n = 3
PTH1R L244A mutant = target: T1, PTH1R L244A mutant (Homo sapiens, UniProt Q03431, L244A); assay: cAMP accumulation assay (GloSensor), PTH1R L244A
T1 construct: a flag-tag was fused to the N terminal of full-length PTH1R (WT or mutant); expressed in transfected cells; host or cells: HEK293T
T1 sequence (Q03431 27-593 L244A): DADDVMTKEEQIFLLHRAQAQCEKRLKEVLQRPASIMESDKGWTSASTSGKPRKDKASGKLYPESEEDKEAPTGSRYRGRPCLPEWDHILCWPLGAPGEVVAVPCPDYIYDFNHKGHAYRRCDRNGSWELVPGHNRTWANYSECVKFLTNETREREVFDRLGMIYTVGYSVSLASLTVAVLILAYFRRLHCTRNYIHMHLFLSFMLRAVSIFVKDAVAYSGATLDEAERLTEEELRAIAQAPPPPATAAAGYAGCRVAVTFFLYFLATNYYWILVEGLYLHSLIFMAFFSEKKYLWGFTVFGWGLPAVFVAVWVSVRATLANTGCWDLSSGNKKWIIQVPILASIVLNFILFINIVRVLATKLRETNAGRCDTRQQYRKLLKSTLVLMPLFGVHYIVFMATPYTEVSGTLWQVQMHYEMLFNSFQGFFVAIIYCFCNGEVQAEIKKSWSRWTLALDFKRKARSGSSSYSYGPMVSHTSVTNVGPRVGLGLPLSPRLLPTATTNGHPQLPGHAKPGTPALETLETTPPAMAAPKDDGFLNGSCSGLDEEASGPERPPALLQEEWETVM
Method: (§1) Human embryonic kidney 293 T (HEK293T, ATCC: CRL-1573) cells were transfected with a plasmid mixture consisting of pcDNA3.1-flag-PTH1R (WT or mutants) and the cAMP biosensor GloSensor-22F (Promega) at a ratio of 2:1 (see Supplementary Table 7 for a list of primers used in this study). After 24 h, transfected cells were plated onto a 384-well plate, which was treated with cell adherent reagent (Applygen) in advance. After another 12 h, cells were treated with Hank’s balanced salt solution for starvation and then incubated in CO2-independent media containing 4% GloSensor cAMP Reagent (Promega) at a volume of 5 μl per well and incubated for 20 min at RT before measurements for baseline luminescence (Spark Multimode microplate reader, TECAN). Next, test ligands were added at different concentrations from 10^−6 to 10^−13 M before second measurement. Finally, data were normalized to 100% of the maximal PTH (1-34) response for WT PTH1R using a sigmoidal dose-response in GraphPad Prism.
(§2) Statistical analyses were performed on at least three individual datasets and analysed using GraphPad Prism software. Bars represent differences in the calculated agonist potency (pEC50) and maximum agonist response (Emax) for each mutant relative to the WT receptor. Data are mean± s.e.m. from at least three independent experiments, performed in triplicates. ns, not significant, ^nsP > 0.01; ^*P < 0.01; ^**P < 0.001; ^***P < 0.0001 (one-way analysis of variance (ANOVA) followed by Dunnett’s test, compared with the response of the WT). For dose-response experiments, data were normalized and analyzed using nonlinear curve fitting for the log (agonist) versus response (three parameters) curves.

PTH1R V285A mutant = target: T2, PTH1R V285A mutant (Homo sapiens, UniProt Q03431, V285A); assay: cAMP accumulation assay (GloSensor), PTH1R V285A
T2 construct: a flag-tag was fused to the N terminal of full-length PTH1R (WT or mutant); expressed in transfected cells; host or cells: HEK293T
T2 sequence (Q03431 27-593 V285A): T1 sequence (Q03431 27-593 L244A) with A218L, V259A
Method: as §1, §2

PTH1R L174A mutant = target: T3, PTH1R L174A mutant (Homo sapiens, UniProt Q03431, L174A); assay: cAMP accumulation assay (GloSensor), PTH1R L174A
T3 construct: a flag-tag was fused to the N terminal of full-length PTH1R (WT or mutant); expressed in transfected cells; host or cells: HEK293T
T3 sequence (Q03431 27-593 L174A): T1 sequence (Q03431 27-593 L244A) with L148A, A218L
Method: as §1, §2

Substance | span (from the WT) (PTH1R L244A mutant; PTH1R L2442.71A, replicate 1) | ΔpEC50 (from the WT) (PTH1R L244A mutant; PTH1R L2442.71A, replicate 1) | span (from the WT) (PTH1R L244A mutant; PTH1R L2442.71A, replicate 2) | ΔpEC50 (from the WT) (PTH1R L244A mutant; PTH1R L2442.71A, replicate 2) | span (from the WT) (PTH1R L244A mutant; PTH1R L2442.71A, replicate 3) | ΔpEC50 (from the WT) (PTH1R L244A mutant; PTH1R L2442.71A, replicate 3) | ΔpEC50±SEM (PTH1R L244A mutant) | ΔpEC50 (from the WT) (PTH1R L244A mutant; replicate 1) | ΔpEC50 (from the WT) (PTH1R L244A mutant; replicate 2) | ΔpEC50 (from the WT) (PTH1R L244A mutant; replicate 3) | Span±SEM (PTH1R L244A mutant) | span (from the WT) (PTH1R V285A mutant; PTH1R V2853.33A, replicate 1) | ΔpEC50 (from the WT) (PTH1R V285A mutant; PTH1R V2853.33A, replicate 1) | span (from the WT) (PTH1R V285A mutant; PTH1R V2853.33A, replicate 2) | ΔpEC50 (from the WT) (PTH1R V285A mutant; PTH1R V2853.33A, replicate 2) | span (from the WT) (PTH1R V285A mutant; PTH1R V2853.33A, replicate 3) | ΔpEC50 (from the WT) (PTH1R V285A mutant; PTH1R V2853.33A, replicate 3) | ΔpEC50±SEM (PTH1R V285A mutant) | ΔpEC50 (from the WT) (PTH1R V285A mutant; replicate 1) | ΔpEC50 (from the WT) (PTH1R V285A mutant; replicate 2) | further results
H-AVAEIQLMHQRAKWIQDARRRAFLHKLIAEIHTAEI-OH [LA-PTH, long-acting PTH analog, modified PTH/PTHrP hybrid] | 131 | -0.382 | 190.8 | -0.346 | 179.4 | -0.43 | -0.39±0.02 | -0.382 | -0.346 | -0.43 | 167.07±18.33 | 160.1 | -0.326 | 211.8 | -0.5 | 140.2 | -0.433 | -0.42±0.05 | -0.326 | -0.5 | ΔpEC50 (from the WT) (PTH1R V285A mutant; replicate 3): -0.433; Span±SEM (PTH1R V285A mutant): 170.70±21.34; span (from the WT) (PTH1R L174A mutant; PTH1R L1741.26A, replicate 1): 93.64; ΔpEC50 (from the WT) (PTH1R L174A mutant; PTH1R L1741.26A, replicate 1): -0.262; span (from the WT) (PTH1R L174A mutant; PTH1R L1741.26A, replicate 2): 87.77; ΔpEC50 (from the WT) (PTH1R L174A mutant; PTH1R L1741.26A, replicate 2): -0.161; span (from the WT) (PTH1R L174A mutant; PTH1R L1741.26A, replicate 3): 98.4; ΔpEC50 (from the WT) (PTH1R L174A mutant; PTH1R L1741.26A, replicate 3): -0.17; ΔpEC50±SEM (PTH1R L174A mutant): -0.20±0.03; ΔpEC50 (from the WT) (PTH1R L174A mutant; replicate 1): -0.262; ΔpEC50 (from the WT) (PTH1R L174A mutant; replicate 2): -0.161; ΔpEC50 (from the WT) (PTH1R L174A mutant; replicate 3): -0.17; Span±SEM (PTH1R L174A mutant): 93.27±3.07
H-AVSEHQLLHDKGKSIQDLRRRELLEKLL-{Aib}-KLHTA-NH2 [ABL, Abaloparatide, an analog of PTHrP, short-acting PTH1R agonist] | 180 | -2.593 | 247.7 | -2.562 | 245.8 | -2.458 | -2.54±0.04 | -2.593 | -2.562 | -2.458 | 224.50±22.26 | 158.8 | -1.921 | 185.5 | -2.009 | 175.8 | -2.246 | -2.06±0.1 | -1.921 | -2.009 | ΔpEC50 (from the WT) (PTH1R V285A mutant; replicate 3): -2.246; Span±SEM (PTH1R V285A mutant): 173.37±7.80; span (from the WT) (PTH1R L174A mutant; PTH1R L1741.26A, replicate 1): 94.46; ΔpEC50 (from the WT) (PTH1R L174A mutant; PTH1R L1741.26A, replicate 1): -0.37; span (from the WT) (PTH1R L174A mutant; PTH1R L1741.26A, replicate 2): 117; ΔpEC50 (from the WT) (PTH1R L174A mutant; PTH1R L1741.26A, replicate 2): -0.52; span (from the WT) (PTH1R L174A mutant; PTH1R L1741.26A, replicate 3): 129.9; ΔpEC50 (from the WT) (PTH1R L174A mutant; PTH1R L1741.26A, replicate 3): -0.682; ΔpEC50±SEM (PTH1R L174A mutant): -0.52±0.09; ΔpEC50 (from the WT) (PTH1R L174A mutant; replicate 1): -0.37; ΔpEC50 (from the WT) (PTH1R L174A mutant; replicate 2): -0.52; ΔpEC50 (from the WT) (PTH1R L174A mutant; replicate 3): -0.682; Span±SEM (PTH1R L174A mutant): 113.79±10.36
H-SVSEIQLMHNLGKHLNSMERVEWLRKKLQDVHNF-OH [PTH, Teriparatide, human PTH 1-34, long-acting peptide agonist of PTH1R] | 138.7 | -0.566 | 168.7 | -0.398 | 186.9 | -0.464 | -0.48±0.05 | -0.566 | -0.398 | -0.464 | 150.17±18.04 | 118.6 | -0.181 | 150.8 | -0.072 | 181.1 | -0.211 | -0.15±0.04 | -0.181 | -0.072 | ΔpEC50 (from the WT) (PTH1R V285A mutant; replicate 3): -0.211; Span±SEM (PTH1R V285A mutant): 152.43±15.43; span (from the WT) (PTH1R L174A mutant; PTH1R L1741.26A, replicate 1): 90.7; ΔpEC50 (from the WT) (PTH1R L174A mutant; PTH1R L1741.26A, replicate 1): -0.41; span (from the WT) (PTH1R L174A mutant; PTH1R L1741.26A, replicate 2): 103.2; ΔpEC50 (from the WT) (PTH1R L174A mutant; PTH1R L1741.26A, replicate 2): -0.706; span (from the WT) (PTH1R L174A mutant; PTH1R L1741.26A, replicate 3): 154.9; ΔpEC50 (from the WT) (PTH1R L174A mutant; PTH1R L1741.26A, replicate 3): -0.481; ΔpEC50±SEM (PTH1R L174A mutant): -0.53±0.09; ΔpEC50 (from the WT) (PTH1R L174A mutant; replicate 1): -0.41; ΔpEC50 (from the WT) (PTH1R L174A mutant; replicate 2): -0.706; ΔpEC50 (from the WT) (PTH1R L174A mutant; replicate 3): -0.481; Span±SEM (PTH1R L174A mutant): 116.27±19.65
